Reference: paper PMC8686256, “DZNep promotes mouse bone defect healing via enhancing both osteogenesis and osteoclastogenesis” (Stem Cell Research & Therapy, 2021)

Columns and labels:
Type in all cases: cell-based, mouse
c-FOS and NFATc1 = assay: Western blotting of c-FOS and NFATc1 in BMMs
Method: (§1) To explore the variation of the proteins on long-term activated signaling, BMMs were cultured in α-MEM containing M-CSF (30 ng/ml) and RANKL (50 ng/ml) at a density of 2 × 10^5 cells/well on 6-well plates. After 24 h, the BMMs were treated with or without 25 nM DZNep for 0, 1, 3, and 5 days, and total protein was obtained, respectively, on these specific time points. To determine the effect of DZNep on the protein of short-time activated phosphorylated, RAW264.7 cells were cultured in α-MEM at a density of 5 × 10^5 cells/well on 6-well plates. One day later, the cells were treated with the serum-free α-MEM in the presence or absence of DZNEP for 3 hand then stimulated with 50 ng/mL RANKL for 0, 10, 20, 30, and 60 min. To determine the efficiency of EZH2 shRna, BMMs were cultured in α-MEM at a density of 5 × 10^5 cells/well on 6-well plates. One day later, the cells were treated with negative control shRNA or different EZH2 shRNA for 2 days. To determine the efficiency of Foxc1 siRna, BMMs were cultured in α-MEM at a density of 5 × 10^5 cells/well on 6-well plates. […] After TBST wash for 3 times, the secondary fluorescence antibodies were incubated without light for 1 h at room temperature and the reactivity was visualized by using Odyssey V3.0 image scanning (Li-COR. Inc., Lincoln, NE, USA). […]

EZH2 and H3K27me3 = assay: Western blotting of EZH2 and H3K27me3 in BMMs; settings: 25 nM; 0, 1, 3, 5 days with RANKL, vs control
Method: as §1

primary BMSC = assay: Osteoblast differentiation and mineralization, ALP and Alizarin red staining
Method: Primary BMSC were obtained from the whole bone marrow of male 4-week-old C57BL/6 mice. In brief, cells were extracted from the tibiae and femurs bone marrow and suspended in α-MEM supple with 10% FBS, and 1% penicillin/streptomycin. Then, the cell cultures were kept in a humid environment at 37 °C with 5% CO2 until they reached 90% confluence. For further identifying the effect of DZNep on osteogenesis, bone marrow-derived mouse mesenchymal stem cells were firstly seeded into the 48-well plates for one day at a density of 5 × 10^4 cells/well. Then the medium was changed by low-glucose DMEM with 15% FBS, 5 mM β-glycerophosphate, 50 µg/mL ascorbic acid, 10-7 mM dexamethasone, and various concentrations of DZNep (0, 12.5, 25, 50, and 100 nM). The medium was changed twice a week. For EZH2 gene knockdown studies, the cells were transfected with virus constructed of different EZH2 short hairpin RNA (shRNA) and negative control shRNA by mixed with polybrene (final concentration of 10ug/ml) for 48 h. The transfection mixture was then replaced by complete α-MEM added with puromycin for 24 h, and BMSCs were then seeded into a 48-well plate at the density of 5 × 10^4 cells/well with complete α-MEM for 24 h. The culture medium was then replaced by low-glucose DMEM with 15% FBS, 5 mM β-glycerophosphate, 50 µg/mL ascorbic acid, 10-7 mM dexamethasone. The medium was changed twice a week. […]

BMMs = assay: Immunofluorescence of podosome actin belt; settings: 25 nM, vs control
Method: BMMs in complete α-MEM with or without 25 nM DZNep were seeded in 6-well plates at a density of 1 × 10^5 cells/well and cultured for 6 days. Once the matured osteoclast could be observed, the plate was washed by PBS and then fixed with 4% paraformaldehyde. The 10 min 0.2% Triton X-PBS was then performed for permeabilizing. After three times washing by PBS, FITC-labeled phalloidin was added for 1 h in darkness to bounds with the cells F-actin ring. The nuclei were stained at RT for 5 min without light by 4′, 6-diamidino-2-phenylindole (DAPI). After the final PBS wash, the perimeter of the actin ring could be observed by the fluorescence microscope (Leica) and analyzed using ImageJ software (NIH, Bethesda, MD, USA).

## Nc1nccc2c1ncn2C1C=C(CO)C(O)C1O (stereo not drawn) [DZNep, 3-Deazaneplanocin]
c-FOS and NFATc1; 25 nM, 0, 1, 3, 5 days, vs control
  expression of c-FOS and NFATc1 (western blot): further enhanced
c-FOS and NFATc1; RANKL, 5 days
  c-FOS and NFATc1 expression (western blot), various concentrations: upregulated
EZH2 and H3K27me3
  EZH2 and H3K27me3 expression in BMMs: decreased at a time manner
Primary BMSC; 7 days, especially 50 nM
  osteoblast differentiation (ALP staining): promoted
Primary BMSC; 28 days
  osteoblast mineralization (Alizarin red staining): enhanced in a dose-dependent manner
BMMs
  podosome actin belt formation of osteoclast: promoted the podosome actin belt formation
